# Measurements taken from ChEMBL document CHEMBL5625160, “Development of a next-generation endogenous OCT4 inducer and its anti-aging effect in vivo” (Eur J Med Chem, 2023).
# Activity calls are given as the source filed them. No cut-off for these calls is given here.
# What was measured:
# [1] = test system: NCCIT; assay: Cytotoxicity against human NCCIT cells assessed as inhibition of cell viability measured after 48 hrs by MTT assay; type: functional, cell-based
# [2] = Cytotoxicity against human HFF cells assessed as inhibition of cell viability measured after 48 hrs by MTT assay; type: toxicity, cell-based
# [3] = test system: Fibroblast; assay: Reprogramming activity in human Fibroblast cells harbouring LTR7-GFP assessed as induction of iPSCs from somatic cells by measuring TRA-160 positive colonies at 5 uM measured after 7 days in presence of SOX2/KLF4/L-MYC/LIN28 (SKML); type: functional, cell-based; conditions: time 7.0 day
# [4] = biological target: POU domain, class 5, transcription factor 1 (Homo sapiens) (UniProt Q01860); assay: Induction of OCT4 (unknown origin) expressed in human NCCIT reporter cells assessed as increase in luminescence signal measured after 24 hrs by luciferase reporter assay; type: cell-based
# [5] = biological target: Homeobox protein NANOG (Homo sapiens) (UniProt Q9H9S0); assay: Induction of NANOG (unknown origin) expressed in human NCCIT reporter cells assessed as increase in luminescence signal measured after 24 hrs by luciferase reporter assay; type: cell-based
# [6] = biological target: POU domain, class 5, transcription factor 1 (Homo sapiens) (UniProt Q01860); assay: Induction of OCT4 (unknown origin) expressed in HEK cells assessed as increase in luminescence signal measured after 24 hrs by luciferase reporter assay; type: cell-based
# [7] = Membrane permeability of the compound; type: ADME
# [8] = biological target: Splicing factor 3B subunit 1 (Homo sapiens) (UniProt O75533); assay: Thermal stabilization of SF3B1 (unknown origin) assessed as increase in denaturation temperature by thermal shift assay (reference value: 58.5+/-2.05 degreeC)
# [9] = biological target: Albumin (Homo sapiens, UniProt P02768); assay: Protein binding in serum albumin (unknown origin); type: ADME; conditions: read-out: PB (converted)
# [10] = test system: Drosophila; assay: Anti-aging activity in Drosophila; type: functional, organism-based
# [11] = test system: NCCIT; assay: Upregulation of E-cadherin expression in human NCCIT cells at 5 to 10 uM measured after 2 days by qRT-PCR analysis; type: functional, cell-based; conditions: dose 5-10 µM, time 2.0 day
# [12] = test system: NCCIT; assay: Upregulation of SOX2 level in human NCCIT cells by fluorescence-activated cell sorter analysis; type: functional, cell-based
# [13] = test system: NCCIT; assay: Upregulation of REX1 expression in human NCCIT cells at 5 to 10 uM measured after 2 days by qRT-PCR analysis; type: functional, cell-based; conditions: dose 5-10 µM, time 2.0 day
# [14] = test system: Caenorhabditis elegans; assay: Anti-aging activity in wild type Caenorhabditis elegans N2 assessed as increase in survival rate measured after 48 hrs under oxidative stress; type: functional, organism-based
# [15] = test system: NCCIT; assay: Upregulation of STAT3 expression in human NCCIT cells at 5 to 10 uM measured after 2 days by qRT-PCR analysis; type: functional, cell-based; conditions: dose 5-10 µM, time 2.0 day
# [16] = test system: HFF; assay: Effect on SOX2 expression in human HFF cells; type: functional, cell-based
# [17] = test system: Fibroblast; assay: Reduction in OCT4 expression in SF3B1 siRNA human Fibroblast cells harbouring LTR7-EGFP; type: functional, cell-based
# [18] = test system: Drosophila; assay: Anti-aging activity in Drosophila assessed as increase in life span at early adulthood at 20 uM measured upto 60 days relative to control; type: functional; conditions: 1440 h, time <= 60 day
# [19] = test system: NCCIT; assay: Upregulation of E-cadherin level in human NCCIT cells by fluorescence-activated cell sorter analysis; type: functional, cell-based
# [20] = test system: NCCIT; assay: Upregulation of SOX2 expression in human NCCIT cells at 5 to 10 uM measured after 2 days by qRT-PCR analysis; type: functional, cell-based; conditions: dose 5-10 µM, time 2.0 day
# [21] = test system: NCCIT; assay: Upregulation of OCT4 level in human NCCIT cells by fluorescence-activated cell sorter analysis; type: functional, cell-based
# [22] = test system: Drosophila; assay: Anti-aging activity in Drosophila assessed as increase in life span at 20 uM measured upto 60 days relative to control; type: functional; conditions: 1440 h, time <= 60 day
# [23] = test system: HFF; assay: Effect on NANOG expression in human HFF cells; type: functional, cell-based
# [24] = test system: Caenorhabditis elegans; assay: Anti-aging activity in Caenorhabditis elegans […] assessed as induction of daf-16 nuclear translocation measured after 24 hrs; type: functional, organism-based
# [25] = test system: NCCIT; assay: Upregulation of OCT4 level in human NCCIT cells measured after 5 days by immunoblot analysis; type: functional, cell-based; conditions: dose 1-50 µM, time 5.0 day
# [26] = test system: Caenorhabditis elegans; assay: Anti-aging activity in wild type Caenorhabditis elegans N2 assessed as increase in life extension at 0.5 uM measured upto 40 days; type: functional, organism-based; conditions: time <= 40.0 day
# [27] = Upregulation of OCT4 expression in human NCCIT cells assessed as fold increase at 5 to 10 uM measured after 2 days by qRT-PCR analysis; type: functional; conditions: dose 5-10 µM; time 2 day
# [28] = Upregulation of NANOG expression in human NCCIT cells assessed as fold increase at 5 to 10 uM measured after 2 days by qRT-PCR analysis; type: functional; conditions: dose 5-10 µM; time 2 day
# [29] = biological target: POU domain, class 5, transcription factor 1 (Homo sapiens) (UniProt Q01860); assay: Induction of OCT4 in human HFF cells measured after 8 hrs; type: cell-based; conditions: filed as activator
# [30] = test system: HFF; assay: Effect on OCT expression in human HFF cells; type: functional, cell-based
# [31] = test system: Drosophila; assay: Anti-aging activity in Drosophila assessed as increase in life span at late adulthood at 20 uM measured upto 60 days; type: functional, organism-based; conditions: time <= 60.0 day
# [32] = test system: NCCIT; assay: Upregulation of NANOG level in human NCCIT cells by fluorescence-activated cell sorter analysis; type: functional, cell-based
# [33] = test system: Fibroblast; assay: Upregulation of OCT4 level in human Fibroblast cells measured after 5 days by immunoblot analysis; type: functional, cell-based; conditions: dose 5-50 µM, time 5.0 day
# [34] = test system: Drosophila; assay: Anti-aging activity in Drosophila assessed as extension of life span; type: functional, organism-based
# POU domain, class 5, transcription factor 1 (Homo sapiens), sequence (Q01860 whole entry, the tested form may be a part): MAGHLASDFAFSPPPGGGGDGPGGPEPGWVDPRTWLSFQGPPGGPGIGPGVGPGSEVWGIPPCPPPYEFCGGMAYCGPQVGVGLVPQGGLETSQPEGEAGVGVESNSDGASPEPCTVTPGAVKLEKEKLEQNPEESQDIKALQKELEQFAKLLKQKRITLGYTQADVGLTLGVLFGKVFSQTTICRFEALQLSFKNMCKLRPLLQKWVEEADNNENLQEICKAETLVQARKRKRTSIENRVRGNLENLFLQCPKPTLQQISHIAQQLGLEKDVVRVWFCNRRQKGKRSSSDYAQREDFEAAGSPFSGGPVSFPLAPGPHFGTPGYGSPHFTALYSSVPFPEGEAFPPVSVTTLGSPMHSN
# Homeobox protein NANOG (Homo sapiens), sequence (Q9H9S0 whole entry, the tested form may be a part): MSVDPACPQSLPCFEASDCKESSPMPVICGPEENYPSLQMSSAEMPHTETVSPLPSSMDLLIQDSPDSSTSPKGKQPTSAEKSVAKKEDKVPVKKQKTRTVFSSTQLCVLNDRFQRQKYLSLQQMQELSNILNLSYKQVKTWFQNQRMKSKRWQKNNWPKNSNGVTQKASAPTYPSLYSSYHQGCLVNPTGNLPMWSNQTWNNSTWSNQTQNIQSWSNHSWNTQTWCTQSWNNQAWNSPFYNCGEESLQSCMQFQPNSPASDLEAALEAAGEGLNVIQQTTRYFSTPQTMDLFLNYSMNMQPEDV
# Splicing factor 3B subunit 1 (Homo sapiens), sequence (O75533 whole entry): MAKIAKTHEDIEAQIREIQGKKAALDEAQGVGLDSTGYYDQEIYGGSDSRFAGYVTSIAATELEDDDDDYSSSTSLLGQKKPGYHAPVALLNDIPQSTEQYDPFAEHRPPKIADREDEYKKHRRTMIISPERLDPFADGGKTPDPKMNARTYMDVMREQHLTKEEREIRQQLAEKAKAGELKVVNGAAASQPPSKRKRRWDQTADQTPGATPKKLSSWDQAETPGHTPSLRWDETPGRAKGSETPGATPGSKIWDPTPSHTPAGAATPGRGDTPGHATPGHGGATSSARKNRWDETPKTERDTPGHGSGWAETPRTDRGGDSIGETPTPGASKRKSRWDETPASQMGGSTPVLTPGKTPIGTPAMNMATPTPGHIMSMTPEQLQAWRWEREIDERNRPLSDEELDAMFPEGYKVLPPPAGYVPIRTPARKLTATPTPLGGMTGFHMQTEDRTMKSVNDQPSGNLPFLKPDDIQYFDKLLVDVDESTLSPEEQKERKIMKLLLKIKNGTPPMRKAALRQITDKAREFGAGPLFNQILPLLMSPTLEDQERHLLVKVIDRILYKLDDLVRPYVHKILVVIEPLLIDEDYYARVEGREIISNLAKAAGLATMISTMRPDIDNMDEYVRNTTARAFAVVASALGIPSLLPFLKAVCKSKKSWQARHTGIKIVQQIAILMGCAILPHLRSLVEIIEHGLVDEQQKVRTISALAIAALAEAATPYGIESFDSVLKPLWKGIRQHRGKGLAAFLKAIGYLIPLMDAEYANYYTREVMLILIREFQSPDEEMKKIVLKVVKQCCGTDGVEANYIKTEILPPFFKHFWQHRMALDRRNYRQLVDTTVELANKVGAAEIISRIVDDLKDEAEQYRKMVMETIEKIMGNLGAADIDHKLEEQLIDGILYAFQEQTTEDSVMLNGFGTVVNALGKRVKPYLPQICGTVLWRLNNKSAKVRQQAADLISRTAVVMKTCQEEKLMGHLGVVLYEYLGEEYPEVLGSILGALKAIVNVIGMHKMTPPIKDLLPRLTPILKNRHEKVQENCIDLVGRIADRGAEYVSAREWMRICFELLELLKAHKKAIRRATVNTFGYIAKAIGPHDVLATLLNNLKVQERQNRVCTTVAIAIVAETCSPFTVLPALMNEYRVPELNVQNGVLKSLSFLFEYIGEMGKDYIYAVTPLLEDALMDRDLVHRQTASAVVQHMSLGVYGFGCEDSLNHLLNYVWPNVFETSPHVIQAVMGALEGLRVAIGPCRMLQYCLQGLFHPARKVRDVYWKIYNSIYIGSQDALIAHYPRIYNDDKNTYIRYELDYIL
# Albumin, sequence (P02768 whole entry): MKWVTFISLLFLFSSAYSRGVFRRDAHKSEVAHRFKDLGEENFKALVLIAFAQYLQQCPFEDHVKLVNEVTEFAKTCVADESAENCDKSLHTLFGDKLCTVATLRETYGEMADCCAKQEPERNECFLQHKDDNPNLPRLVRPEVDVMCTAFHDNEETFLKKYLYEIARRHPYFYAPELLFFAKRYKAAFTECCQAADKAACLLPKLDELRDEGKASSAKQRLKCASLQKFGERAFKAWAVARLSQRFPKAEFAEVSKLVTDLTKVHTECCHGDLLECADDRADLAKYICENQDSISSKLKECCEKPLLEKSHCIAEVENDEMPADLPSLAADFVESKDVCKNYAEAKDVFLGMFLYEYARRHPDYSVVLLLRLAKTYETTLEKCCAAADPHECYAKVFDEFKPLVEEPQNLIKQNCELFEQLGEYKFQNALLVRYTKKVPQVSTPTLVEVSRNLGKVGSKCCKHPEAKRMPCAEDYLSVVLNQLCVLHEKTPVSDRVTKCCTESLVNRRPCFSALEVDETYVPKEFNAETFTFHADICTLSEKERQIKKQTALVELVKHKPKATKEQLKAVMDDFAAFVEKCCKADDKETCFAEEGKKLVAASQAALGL
compound,measurement,setting,value
Clc1ccc(Nc2nc(-c3ccc4ccccc4c3)cs2)cc1,IC50,[1],> 20 µM
same,IC50 at 48 h,[2],> 20 µM
CCOC(=O)c1csc(Nc2ccc(C(=O)O)cc2)n1,Activity,[3],Active
same,IC50,[1],> 20 µM
same,Activity,[4]; filed as activator,Active
same,Activity,[5]; filed as activator,Active
same,IC50 at 48 h,[2],> 20 µM
same,Activity,[6]; filed as activator,Active
Cc1ccc(Nc2nc(C(C)(C)C)cs2)cc1,IC50,[1],> 20 µM
same,IC50 at 48 h,[2],> 20 µM
Cc1cccc(Nc2nc(C(C)(C)C)cs2)c1,IC50,[1],5.96 µM
same,IC50 at 48 h,[2],11.6 µM
CCOC(=O)c1csc(Nc2ccc(Cl)cc2OC)n1,IC50,[1],> 20 µM
same,Activity,[4],inactive
same,Activity,[5],inactive
same,IC50 at 48 h,[2],> 20 µM
same,Activity,[6],inactive
CCOC(=O)c1csc(Nc2cc(C(F)(F)F)cc(C(F)(F)F)c2)n1,IC50,[1],> 20 µM
same,Activity,[4],inactive
same,Activity,[5],inactive
same,IC50 at 48 h,[2],> 20 µM
same,Activity,[6],inactive
CCOC(=O)c1csc(Nc2ccc(C)cc2Br)n1,Activity,[3],Active
same,IC50,[1],> 20 µM
same,Activity,[4],inactive
same,Activity,[5],inactive
same,IC50 at 48 h,[2],> 20 µM
same,Activity,[6]; filed as activator,Active
CCOC(=O)c1csc(Nc2ccc(OC)cc2OC)n1,IC50,[1],> 20 µM
same,Activity,[4],inactive
same,Activity,[5],inactive
same,IC50 at 48 h,[2],> 20 µM
same,Activity,[6],inactive
CC(C)(C)c1csc(Nc2ccccc2)n1,IC50,[1],> 20 µM
same,IC50 at 48 h,[2],> 20 µM
CCOC(=O)c1csc(Nc2ccc(C#N)cc2)n1,IC50,[1],> 20 µM
same,Activity,[4],inactive
same,Activity,[5],inactive
same,IC50 at 48 h,[2],> 20 µM
same,Activity,[6],inactive
CCOC(=O)c1csc(Nc2ccc(Cl)cc2)n1,Activity,[3],Active
same,permeability,[7],70%
same,Activity,[4],inactive
same,Activity,[5],inactive
same,T,[8],64.7 °C
same,fraction unbound,[9],0.1
same,Activity,[10],inactive
same,Activity,[6],inactive
CCOC(=O)c1csc(Nc2ccc(F)cc2F)n1,IC50,[1],> 20 µM
same,Activity,[4],inactive
same,Activity,[5],inactive
same,IC50 at 48 h,[2],> 20 µM
same,Activity,[6]; filed as activator,Active
Cc1cccc(Nc2nc(C(C)(C)C)cs2)c1C,Activity,[11],Active
same,Activity,[12],Active
same,Activity,[13],Active
same,Activity,[14],Active
same,Activity,[15],Active
same,Activity,[16],Active
same,Activity,[17],Active
same,ILS at 20 µM,[18],10%
same,Activity,[19],Active
same,Activity,[20],Active
same,Activity,[3],Active
same,Activity,[21],Active
same,ILS at 20 µM,[22],5%
same,Activity,[23],Active
same,IC50,[1],10.9 µM
same,Activity,[24],Active
same,Activity,[25],Dose-Dependent Effect
same,Activity,[26],Active
same,Activity,[4]; filed as activator,Active
same,fold change (FC),[27],3
same,fold change (FC),[28],30
same,Activity,[29],Active
same,Activity,[5]; filed as activator,Active
same,T,[8],64.9 °C
same,Activity,[30],Active
same,IC50 at 48 h,[2],> 20 µM
same,ILS,[31],inactive
same,Activity,[32],Active
same,Activity,[33],Dose-Dependent Effect
same,Activity,[6]; filed as activator,Active
CCOC(=O)c1csc(Nc2ccc(Br)cc2C)n1,IC50,[1],> 20 µM
same,Activity,[4],inactive
same,Activity,[5],inactive
same,IC50 at 48 h,[2],> 20 µM
same,Activity,[6]; filed as activator,Active
Clc1ccc(Nc2nc(-c3ccccc3)cs2)cc1,IC50,[1],> 20 µM
same,IC50 at 48 h,[2],> 20 µM
CCOC(=O)c1csc(Nc2cc(F)ccc2F)n1,IC50,[1],> 20 µM
same,Activity,[4],inactive
same,Activity,[5],inactive
same,IC50 at 48 h,[2],> 20 µM
same,Activity,[6]; filed as activator,Active
CCOC(=O)c1csc(Nc2cc(OC)ccc2OC)n1,IC50,[1],> 20 µM
same,Activity,[4],inactive
same,Activity,[5],inactive
same,IC50 at 48 h,[2],> 20 µM
same,Activity,[6],inactive
Cc1ccccc1Nc1nc(C(C)(C)C)cs1,IC50,[1],9.38 µM
same,IC50 at 48 h,[2],> 20 µM
CCOC(=O)c1csc(Nc2ccc(O)cc2)n1,IC50,[1],> 20 µM
same,Activity,[4],inactive
same,Activity,[5],inactive
same,IC50 at 48 h,[2],> 20 µM
same,Activity,[6],inactive
CCOC(=O)c1csc(Nc2ccc(C)cc2)n1,IC50,[1],> 20 µM
same,Activity,[4],inactive
same,Activity,[5],inactive
same,IC50 at 48 h,[2],> 20 µM
same,Activity,[6],inactive
C=C[C@@]1(C)CC(=O)[C@]2(O)[C@@]3(C)[C@@H](O)CCC(C)(C)[C@@H]3[C@H](O)[C@H](OC(C)=O)[C@@]2(C)O1,Activity,[34],inactive
Cc1ccc(Nc2nc(C(C)(C)C)cs2)c(C)c1,IC50,[1],> 20 µM
same,IC50 at 48 h,[2],> 20 µM
CC(C)(C)c1csc(Nc2ccc(Cl)cc2)n1,Activity,[3],inactive
same,IC50,[1],19.7 µM
same,IC50 at 48 h,[2],> 20 µM
CCOC(=O)c1csc(Nc2ccc([N+](=O)[O-])cc2)n1,IC50,[1],> 20 µM
same,Activity,[4],inactive
same,Activity,[5],inactive
same,IC50 at 48 h,[2],> 20 µM
same,Activity,[6]; filed as activator,Active
Cc1ccc(-c2cn3cc(C)ccc3n2)cc1,Activity,[3],Active
CCOC(=O)c1csc(Nc2ccc(OC)cc2)n1,IC50,[1],> 20 µM
same,Activity,[4],inactive
same,Activity,[5],inactive
same,IC50 at 48 h,[2],> 20 µM
same,Activity,[6],inactive
